“Also recorded” adds a separate entry of the source.
Experiments:
[1] = test system: LEF/TCF-mediated transcription; test: SuperTopFlash Tcf/Lef luciferase reporter assay in primary human keratinocytes; assay type: cell-based; conditions: 24 hours; for dexamethasone-mediated induction of LEF/TCF-mediated transcription: Dexamethasone 1 μM with RU486 10 μM or Calphostine C 200 nM
Experimental: Primary human keratinocytes were plated into 6-well plates and grown to 70% confluence in defined serum-free keratinocyte medium supplemented with epidermal growth factor and bovine pituitary extract (keratinocyte-SFM, GIBCO). Prior to transfection cells were transferred to basal serum—free medium (GIBCO) for 6 h, and then transfected with Tcf/Lef transcriptional activation reporter construct SuperTopFlash (Masckauchán, Mol. Biol. Cell, 17(12):5163-5172 (2006)) containing Tcf responsive elements and renilla-luciferase construct. Transfections were performed in triplicates using 3 μg of reporter plasmid, 0.2 μg of renilla-luciferase plasmid with a FuGene 6 transfection reagent (Roche), following manufacturer's instructions for procedure. Cells were incubated at 37° C. for over night with transfection cocktail and than treated with Dexamethasone (1 μM), RU486 (10 μM) and Calphostine C (200 nM) for 24 hours. Cell lysates were prepared the next day and both firefly and renilla luciferase activities were evaluated using Dual-Luciferase Reporter Assay System (Promega, Madison, Wis.). Samples were read in a luminometer and values were normalized for transfection efficiency using renilla-luciferase activity.

[2] = test system: Primary human keratinocytes; test: Keratinocyte migration, wound scratch assay; assay type: cell-based
Experimental: Primary human keratinocytes were grown to 80% confluency. Twenty-four hours before the experiment cells were transferred to basal KBM medium (Life Technologies, Inc., Grand Island, N.Y.). Before the scratch, cells were treated with 8 μg/ml mitomycin C (ICN, Irvine, Calif.) for 1 hour and washed with basal media. Scratches were performed as previously described (Lee, et al., J Mol. Biol., 345:1083-1097 (2005)). Cells were incubated with 20 μmol/L LiCl or 25 ng/ml of EGF for 24 and 48 hours, rephotographed, and cell migration was quantified as previously described (Lee, et al., J. Mol. Biol., 345:1083-1097 (2005); Zavadil. et al., EMBO J., 23:1155-1165 (2004)). Thirty measurements were taken for each experimental condition and distance coverage by cells moving into the scratch wound area was quantified. Three images were analyzed per condition, per time point, and averages and standard deviations were calculated.

wounded human skin [3] = test: Human skin ex vivo wound model with LiCl; assay type: cell-based; conditions: 4 mm punch wound, air-liquid interface, 20 mmol/L LiCl, 4 days
From the text: Wounds were created using 4-mm punch biopsies through the reticular dermis and a rim of cells participating in wound healing was collected by re-punching around the initial wounded area. Each time point was collected in parallel with an unwounded skin specimen of the same donor. All specimens were collected and either stored in RNAlater (Ambion, Austin, Tex.) or frozen in OCT compound (Tissue Tek, Reading, Calif.) for immunocytochemistry. To activate β-catenin, wounded skin was maintained on the air-liquid interface in the presence or absence of 20 mmol/L LiCl (Shimm, et al., J. Biol. Chem., 278:19674-19681 (2003)). Wounds were quantified by planimetry as described previously (Stojadinovic, et al., Am. J. Pathol., 167(1):59-69 (2005)).

β-catenin = β-catenin nuclearization in primary human epidermal keratinocytes (immunostaining, β-catenin y142); assay type: cell-based; conditions: 0.1 μmol/L dexamethasone; 200 nM Calphostin C or 10 μM RU486
Experimental: Topical GC treatment of human skin cepsimens was performed by daily applica-tion of Cormax (Clobetasol Propionate Cream 0.05%; Oclassen Pharmaceuticals, Inc.) using a sterile Q-tip applicator. Samples were fixed in formalin and processed for paraffin embedding following by sectioning to obtain 5-μm-thick sections. Keratinocytes were grown on chamber slides to 70% confluency (Lab-Tek, Naperville, Ill.) and treated with 0.1 μmol/L dexamethasone (Sigma) and incubated in the presence or absence of 200 nM Calphostin C or 10 μM RU486. Cells were fixed in 70% methanol for 10 minutes and permeabilized with 0.1% Triton X-100 for 10 minutes. Human tissues were stained with β-catenin antibody β-catenin phosphorylated Ab (Tyr- 142) (AbCam) at 1:1500 dilution in 5% bovine serum albumin and visualized using a secondary fluorescein isothiocyanate anti-mouse IgG antibody 1:150 (Sigma). All sections were mounted with mounting media. All negative controls were prepared by substitution of the primary antibody with an irrelevant antibody. The sections were analyzed using a Carl Zeiss microscope (Carl Zeiss, Thornwood, N.Y.) and digital images were collected using Adobe TWAIN—32 program.

c-myc = c-myc Western blot in HEK; assay type: cell-based, human; conditions: DEX 1 μM with Calphostine C or RU486 10 μM, 4 hours
Experimental: Extracts for immunoblotting were prepared from a subconfluent 100 mm plate of normal HEK treated with DEX (1 μM), Calphostine C and RU486 (10 μM) or an equal volume of ethanol vehicle 4 hours prior to lysis. Cells were placed on ice; washed twice with phosphate-buffer saline (PBS); and lysed in 0.5 ml of modified RIPA buffer containing 50 mM Hepes, pH 7.5, 150 mM NaCl, 1 mM EDTA, 1 mM EGTA, 1 mM NaF, 1% Triton X-100, 10% glycerol, and additional protease and phosphatase inhibitors (1 mM phenylmethylsulfonyl fluoride, 20 mM glycerophosphate, 8 mM sodium pyrophosphate, 1 μg/ml leupeptin, 1 μg/ml pepstatin A, and 1 μg/ml aprotinin (Roche, Indianapolis, Ind.)) through fine needle aspiration. Lysates were centrifuged at 13,000 rpm for 10 min at 4° C. The soluble supernatants were normalized for total protein concentration using the Bradford protein assay, and the samples were stored at −20° C. Cell extracts were boiled for 5 minutes in Leammli sample buffer, were separated by 10% SDS-PAGE and transferred to nitrocellulose membrane (VWR, Batavia, Ill.) on 100 V for 1 hour in Tris/glycine transfer buffer. […] Western blot quantification was done using Total Lab Program (Non-linear dynamics Inc., NC).

GSK3β = test: Phospho-GSK3β (Ser 9) Western blot in keratinocytes; assay type: cell-based, human; conditions: DEX 1 μM with GO6979 400 μM, RU486 10 μM or U73122 10 μM
Experimental: Extracts for immunoblotting were prepared from a subconfluent 100 mm plate of normal HEK treated with DEX (1 μM), Calphostine C and RU486 (10 μM) or an equal volume of ethanol vehicle 4 hours prior to lysis. Cells were placed on ice; washed twice with phosphate-buffer saline (PBS); and lysed in 0.5 ml of modified RIPA buffer containing 50 mM Hepes, pH 7.5, 150 mM NaCl, 1 mM EDTA, 1 mM EGTA, 1 mM NaF, 1% Triton X-100, 10% glycerol, and additional protease and phosphatase inhibitors (1 mM phenylmethylsulfonyl fluoride, 20 mM glycerophosphate, 8 mM sodium pyrophosphate, 1 μg/ml leupeptin, 1 μg/ml pepstatin A, and 1 μg/ml aprotinin (Roche, Indianapolis, Ind.)) through fine needle aspiration. Lysates were centrifuged at 13,000 rpm for 10 min at 4° C. The soluble supernatants were normalized for total protein concentration using the Bradford protein assay, and the samples were stored at −20° C. Cell extracts were boiled for 5 minutes in Leammli sample buffer, were separated by 10% SDS-PAGE and transferred to nitrocellulose membrane (VWR, Batavia, Ill.) on 100 V for 1 hour in Tris/glycine transfer buffer. The membranes were blocked for 30 minutes in 5% bovine serum albumin in blocking solution (Tris-buffered saline (TBS, pH 7.4) at room temperature and then incubated in blocking solution with primary antibody at 4° C. overnight using 1:500 of serum for anti-c-myc antibody (Santa Cruz). The membranes were washed three times for 5 minutes with TBS and 0.1% Triton X-100 and twice with TBS and incubated for 1 hour at room temperature with horseradish peroxidase-conjugated secondary antibody (Santa Cruz, Calif.). Blots were then washed three times for 5 minutes with TBS and 0.1% Triton X-100 and developed using Super Signal West Pico Chemiluminescent substrate (Pierce, Rockford, Ill.) and exposed on x-ray film (Eastman Kodak Co. Bio Max MR-Film) according to the manufacturer's instructions. For loading control we used anti b-tubulin antibody (Santa Cruz, Santa Cruz, Calif.). Western blot quantification was done using Total Lab Program (Non-linear dynamics Inc., NC). […]

PLC = conditions: human platelets and neutrophils; read-out: IC50, agonist-induced PLC activation; cited from earlier work
wounded human skin [4] = test: Human skin wound model, topical treatment, epithelialization by planimetry; assay type: cell-based; conditions: topical DEX 1 μM + Calphostine C 200 μM, 6 days
Experimental: Wounds were created using 4-mm punch biopsies through the reticular dermis and incubated on the air-liquid interface, as previously described. Immediately upon wounding cells were treated topically with dexamethasone (DEX) (1 μM), Calphostine C (CC) (200 μM) and the combination, DEX+CC and maintained on the air-liquid interface for 6 days. All specimens were frozen in OCT compound (Tissue Tek, Reading; Calif.) for immunocytochemistry. Wounds were quantified by planimetry as described previously (Tomic-Canic, et al., Wound Repair Regen., 15(1):71-9 (2007)).

protein kinase C = conditions: cited from earlier work
protein kinase C (PKC) = conditions: rat brain; cited from earlier work
[5] = test system: Ca^2+-independent PKC d-, e-, and z-isozymes; conditions: even at micromolar levels; cited from earlier work

Row | SMILES | dexamethasone-mediated induction of LEF/TCF-mediated transcription [1] | GC-mediated nuclearization (activation) of β-catenin (β-catenin) | GCs-mediated c-myc activation (c-myc) | dexamethasone-mediated phosphorylation of GSK3β (GSK3β) | other results
1 | [Cl-].[Li+] [LiCl] | – | – | – | – | LEF/TCF-mediated transcription (TopFlash activity) ([1]; agent alone, Dexamethasone 1 μM): increase activity; keratinocyte migration ([2]; 20 μmol/L LiCl or 25 ng/ml of EGF, 24 and 48 hours): inhibited; EGF-stimulated keratinocyte migration ([2]; LiCl with EGF): efficiently blocked; wound healing (planimetry, histology) (wounded human skin [3]): completely inhibited
2 | CC#C[C@]1(O)CC[C@H]2[C@@H]3CCC4=CC(=O)CCC4=C3[C@@H](c3ccc(N(C)C)cc3)C[C@@]21C [RU486, (11b,17b)-11-(4-(Dimethylamino)phenyl)-17-hydroxy-17-(1-propynyl)estra-4,9-dien-3-one] | abolished | blocked | blocked | completely abolished; also recorded: block | –
3 | COc1ccc2c(c1)CCC1C2CC[C@@]2(C)C1CC[C@@H]2NCCCCCCN1C(=O)C=CC1=O (stereo partly drawn) [U-73122] | – | – | – | inhibits | IC50 (PLC): 1000 to 2100 nM
4 | COc1c(CC(C)OC(=O)Oc2ccc(O)cc2)c2c3c(CC(C)OC(=O)c4ccccc4)c(OC)c(=O)c4c(O)cc(OC)c(c5c(OC)cc(O)c(c1=O)c52)c43 (stereo not drawn) [Calphostin C] | blocked | blocked | blocked | – | dexamethasone-mediated inhibition of epithelialization (wounded human skin [4]): rescues; IC50 (protein kinase C): 50 nM
5 | Cn1c2ccccc2c2c3c(c4c5ccccc5n(CCC#N)c4c21)CNC3=O [Go 6976, 12-(2-Cyanoethyl)-6,7,12,13-tetrahydro-13-methyl-5-oxo-5H-indolo(2,3-a)pyrrolo(3,4-c)-carbazole] | – | – | – | block | IC50 (protein kinase C (PKC)): 7.9 nM; effect on kinase activity of Ca^2+-independent PKC d-, e-, and z-isozymes [5]: does not affect
